Test results reported in patent US20070048247A1, “Deodorizing tablets” (Kimberly-Clark Worldwide, Inc., priority 2005, published 2007).

Key:
[1] = Example 4 urine odor panel ranking; parameters: species or system Human; conditions: for Average Rankings, Avg. Score / Urine Odor Ranking 2 (number of panelists) / Urine Odor Ranking 4 (number of panelists) / Urine Odor Ranking 6 (number of panelists) / Urine Odor Ranking 7 (number of panelists) / Urine Odor Ranking 3 (number of panelists) / Urine Odor Ranking 5 (number of panelists) / Urine Odor Ranking 1 (number of panelists): 8 millimolar in urine, scale 1 to 7, 7 most malodorous
Description: Powders of the aforementioned quinone compounds (commercially available from Sigma-Aldrich Chemical Co., Inc. of St. Louis, Missouri and Noveon Hilton Davis, Inc. of Cincinnati, Ohio) were weighed and placed into the mason jars containing 50 milliliters of urine so that the final concentration of the powder was 8 millimolar (equivalent to 0.5 wt. %).
To aid in the assessment of the quinone compounds, panelists were asked to rank the mason jars from least to most malodorous (on a scale from 1 to 7, with 7 being the most malodors). The results are set forth below in Tables 12 and 13.

[2] = Example 5 urine odor panel ranking; parameters: species or system Human; conditions: for Average Rankings (Group B), Avg. Score / Urine Odor Ranking 2 (number of panelists) / Urine Odor Ranking 4 (number of panelists) / Urine Odor Ranking 7 (number of panelists) / Average Rankings (Group A), Avg. Score / Urine Odor Ranking 5 (number of panelists) / Urine Odor Ranking 6 (number of panelists) / Urine Odor Ranking 8 (number of panelists) / Urine Odor Ranking 1 (number of panelists): 8 mM in urine, 1 least, 8 most urine malodor
Method: Assessments were conducted the following day by asking panelists to rate each jar from 1 (least urine malodor) to 8 (most urine malodor). The results are set forth below in Tables 15-18.

[3] = Example 7 urine odor panel ranking (16 millimolar); parameters: species or system Human; conditions: 16 millimolar in urine, 1 least, 10 most urine malodor
Method: The effectiveness of various quinone compounds in reducing urine odor was compared. […] Human female urine was initially collected and pooled at Kimberly-Clark Corporation. The pooled urine was added to mason jars in 50-milliliter aliquots using an automated pipette aid. Powders of the aforementioned quinone compounds (commercially available from Sigma-Aldrich Chemical Co., Inc. of St. Louis, Missouri and Noveon Hilton Davis, Inc. of Cincinnati, Ohio) were weighed and placed into the mason jars containing 50 milliliters of urine so that the final concentration of the powder was 16 millimolar (equivalent to 1 wt. %). The mason jars were placed in an incubator overnight at 37° C. The experimental setup is set forth in more detail below in Table 21.
Jars were wrapped in foil and placed in an incubator at 37° C. overnight. The jars were divided into four groups (C-F), each sharing the same control jar of urine alone (no powder). Assessments were conducted the following day by asking panelists to rate each jar from 1 (least urine malodor) to 10 (most urine malodor).

[4] = Solubility of powder in urine
[5] = Example 6 urine odor panel ranking; parameters: species or system Human; conditions: as Example 5, 1 least, 8 most urine malodor
Description: The quinone compounds chosen for this example were Alizarin Blue Black B, Remazol Brilliant Blue R and Acid Green 25. The results are set forth below in Tables 19 and 20.

[6] = Example 5, 8 mM in 50 milliliters of urine
[7] = Example 7, 16 mM in 50 milliliters of urine

## O=C1c2ccccc2C(=O)c2c(O)ccc(O)c21 [1,4-Dihydroxyanthraquinone, 1,4-dihydroxyanthraquinone]
[1]
  Average Rankings, Avg. Score: 4.75
  Urine Odor Ranking 2 (number of panelists): 1
  Urine Odor Ranking 4 (number of panelists): 1
  Urine Odor Ranking 6 (number of panelists): 1
  Urine Odor Ranking 7 (number of panelists): 1

## Nc1ccc(O)c2c1C(=O)c1ccccc1C2=O [1-Amino-4-Hydroxyanthraquinone, 1-amino-4-hydroxyanthraquinone]
[1]
  Average Rankings, Avg. Score: 5
  Urine Odor Ranking 3 (number of panelists): 1
  Urine Odor Ranking 5 (number of panelists): 2
  Urine Odor Ranking 7 (number of panelists): 1

## CC(=O)Nc1ccc(Nc2cc(S(=O)(=O)[O-])c(N)c3c2C(=O)c2ccccc2C3=O)cc1.[Na+] [Acid Blue 40]
[2]; Example 5 Group B
  odor reduction performance (in words): performed well
  Average Rankings (Group B), Avg. Score: 4.25
  Urine Odor Ranking 2 (number of panelists): 1
  Urine Odor Ranking 4 (number of panelists): 2
  Urine Odor Ranking 7 (number of panelists): 1
[3]; Example 7 Group F
  Average Rankings (Group F), Avg. Score: 3.8
  Urine Odor Ranking 1 (number of panelists): 1
  Urine Odor Ranking 2 (number of panelists): 1
  Urine Odor Ranking 3 (number of panelists): 1
  Urine Odor Ranking 4 (number of panelists): 1
  Urine Odor Ranking 9 (number of panelists): 1
[4]; [6]
  Soluble?: Yes
[4]; [7]
  Soluble?: Somewhat

## CC(=O)N(C)c1ccc(Nc2cc(S(=O)(=O)[O-])c(N)c3c2C(=O)c2ccccc2C3=O)cc1.[Na+] [Acid Blue 41]
[2]; Example 5 Group A
  Average Rankings (Group A), Avg. Score: 5
  Urine Odor Ranking 4 (number of panelists): 1
  Urine Odor Ranking 5 (number of panelists): 2
  Urine Odor Ranking 6 (number of panelists): 1
[3]; Example 7 Group C
  Average Rankings (Group C), Avg. Score: 3.4
  Urine Odor Ranking 2 (number of panelists): 2
  Urine Odor Ranking 3 (number of panelists): 2
  Urine Odor Ranking 7 (number of panelists): 1
[4]; [6]
  Soluble?: Yes
[4]; [7]
  Soluble?: Yes

## Cc1cc(C)c(S(=O)(=O)[O-])c(C)c1Nc1ccc(Nc2c(C)cc(C)c(S(=O)(=O)[O-])c2C)c2c1C(=O)c1ccccc1C2=O.[Na+].[Na+] [Acid Blue 80]
[2]; Example 5 Group B
  Average Rankings (Group B), Avg. Score: 6.25
  Urine Odor Ranking 4 (number of panelists): 1
  Urine Odor Ranking 5 (number of panelists): 1
  Urine Odor Ranking 8 (number of panelists): 2
[3]; Example 7 Group F
  Average Rankings (Group F), Avg. Score: 5.4
  Urine Odor Ranking 1 (number of panelists): 1
  Urine Odor Ranking 5 (number of panelists): 1
  Urine Odor Ranking 6 (number of panelists): 1
  Urine Odor Ranking 7 (number of panelists): 1
  Urine Odor Ranking 8 (number of panelists): 1
[4]; [6]
  Soluble?: Yes
[4]; [7]
  Soluble?: Mostly

## Cc1ccc(Nc2ccc(O)c3c2C(=O)c2ccccc2C3=O)c(S(=O)(=O)[O-])c1.[Na+] [Acid Violet 43]
[2]; Example 5 Group A
  Average Rankings (Group A), Avg. Score: 4.75
  Urine Odor Ranking 2 (number of panelists): 2
  Urine Odor Ranking 7 (number of panelists): 1
  Urine Odor Ranking 8 (number of panelists): 1
[3]; Example 7 Group D
  Average Rankings (Group D), Avg. Score: 4.2
  Urine Odor Ranking 1 (number of panelists): 1
  Urine Odor Ranking 3 (number of panelists): 1
  Urine Odor Ranking 4 (number of panelists): 1
  Urine Odor Ranking 5 (number of panelists): 1
  Urine Odor Ranking 8 (number of panelists): 1
[4]; [6]
  Soluble?: Yes
[4]; [7]
  Soluble?: No

## O=C1c2ccccc2C(=O)c2c(Nc3cccc(S(=O)(=O)[O-])c3)c(Nc3ccc(S(=O)(=O)[O-])cc3)cc(O)c21.[Na+].[Na+] [Alizarin Blue Black B, Mordant Black 13 (Alizarin Blue Black B)]
[2]; Example 5 Group A
  odor reduction performance (in words): performed best
  Average Rankings (Group A), Avg. Score: 1
  Urine Odor Ranking 1 (number of panelists): 4
[3]; Example 7 Group C
  Average Rankings (Group C), Avg. Score: 3
  Urine Odor Ranking 1 (number of panelists): 1
  Urine Odor Ranking 3 (number of panelists): 2
  Urine Odor Ranking 4 (number of panelists): 2
[5]
  Average Rankings, Avg. Score: 2.75
  Urine Odor Ranking 1 (number of panelists): 1
  Urine Odor Ranking 3 (number of panelists): 2
  Urine Odor Ranking 4 (number of panelists): 1
[4]; [6]
  Soluble?: Yes
[4]; [7]
  Soluble?: Yes

## Cc1c(C(=O)O)c(O)cc2c1C(=O)c1c(O)c([C@@H]3O[C@H](CO)[C@@H](O)[C@H](O)[C@H]3O)c(O)c(O)c1C2=O [Carminic Acid, Natural Red 4 (Carminic Acid)]
[3]; Example 7 Group E
  Average Rankings (Group E), Avg. Score: 3.6
  Urine Odor Ranking 1 (number of panelists): 2
  Urine Odor Ranking 3 (number of panelists): 1
  Urine Odor Ranking 4 (number of panelists): 1
  Urine Odor Ranking 9 (number of panelists): 1

## Cc1cc(O)c2c(c1)C(=O)c1cc(O)cc(O)c1C2=O [Emodin]
[3]; Example 7 Group C
  Average Rankings (Group C), Avg. Score: 7.8
  Urine Odor Ranking 5 (number of panelists): 1
  Urine Odor Ranking 8 (number of panelists): 2
  Urine Odor Ranking 9 (number of panelists): 2
[4]; [7]
  Soluble?: No

## Nc1c(S(=O)(=O)O)cc(Nc2ccc(Nc3nc(Cl)nc(Nc4cccc(S(=O)(=O)O)c4)n3)c(S(=O)(=O)O)c2)c2c1C(=O)c1ccccc1C2=O [Procion Blue HB, Reactive Blue 2 (Procion Blue HB)]
[1]
  Average Rankings, Avg. Score: 3.5
  Urine Odor Ranking 1 (number of panelists): 2
  Urine Odor Ranking 2 (number of panelists): 1
  Urine Odor Ranking 4 (number of panelists): 1
  Urine Odor Ranking 7 (number of panelists): 1
[2]; Example 5 Group A
  Average Rankings (Group A), Avg. Score: 6.5
  Urine Odor Ranking 5 (number of panelists): 1
  Urine Odor Ranking 6 (number of panelists): 1
  Urine Odor Ranking 7 (number of panelists): 1
  Urine Odor Ranking 8 (number of panelists): 1
[3]; Example 7 Group F
  Average Rankings (Group F), Avg. Score: 5.2
  Urine Odor Ranking 1 (number of panelists): 1
  Urine Odor Ranking 4 (number of panelists): 1
  Urine Odor Ranking 5 (number of panelists): 1
  Urine Odor Ranking 6 (number of panelists): 1
  Urine Odor Ranking 9 (number of panelists): 1
  Urine Odor Ranking 10 (number of panelists): 1
[4]; Example 4, 8 millimolar in 50 milliliters of urine
  Soluble?: Yes
[4]; [6]
  Soluble?: Yes
[4]; [7]
  Soluble?: Yes

## Nc1c(S(=O)(=O)[O-])cc(Nc2cccc(S(=O)(=O)CCOS(=O)(=O)[O-])c2)c2c1C(=O)c1ccccc1C2=O.[Na+].[Na+] [Remazol Brilliant Blue R, Reactive Blue 19 (Remazol Brilliant Blue R)]
[1]
  reducing urine odor (in words): most effective in reducing urine odor
  Average Rankings, Avg. Score: 1.5
  Urine Odor Ranking 1 (number of panelists): 2
  Urine Odor Ranking 2 (number of panelists): 2
[2]; Example 5 Group B
  odor reduction performance (in words): performed well
  Average Rankings (Group B), Avg. Score: 3
  Urine Odor Ranking 1 (number of panelists): 2
  Urine Odor Ranking 4 (number of panelists): 1
  Urine Odor Ranking 6 (number of panelists): 1
[3]; Example 7 Group E
  Average Rankings (Group E), Avg. Score: 3.4
  Urine Odor Ranking 1 (number of panelists): 1
  Urine Odor Ranking 2 (number of panelists): 2
  Urine Odor Ranking 3 (number of panelists): 1
  Urine Odor Ranking 9 (number of panelists): 1
[5]
  Average Rankings, Avg. Score: 4.75
  Urine Odor Ranking 2 (number of panelists): 1
  Urine Odor Ranking 3 (number of panelists): 1
  Urine Odor Ranking 7 (number of panelists): 2

## CCNc1ccc(NCC)c2c1C(=O)c1ccccc1C2=O [Solvent Blue 59]
[1]
  Average Rankings, Avg. Score: 5.25
  Urine Odor Ranking 3 (number of panelists): 1
  Urine Odor Ranking 5 (number of panelists): 1
  Urine Odor Ranking 6 (number of panelists): 1
  Urine Odor Ranking 7 (number of panelists): 1

## Cc1ccc(Nc2ccc(Nc3ccc(C)cc3)c3c2C(=O)c2ccccc2C3=O)cc1 [Solvent Green 3]
[1]
  Average Rankings, Avg. Score: 3.75
  Urine Odor Ranking 2 (number of panelists): 1
  Urine Odor Ranking 3 (number of panelists): 1
  Urine Odor Ranking 4 (number of panelists): 1
  Urine Odor Ranking 6 (number of panelists): 1

## Acid Black 48
[3]; Example 7 Group C
  Average Rankings (Group C), Avg. Score: 7.2
  Urine Odor Ranking 2 (number of panelists): 1
  Urine Odor Ranking 6 (number of panelists): 1
  Urine Odor Ranking 8 (number of panelists): 1
  Urine Odor Ranking 10 (number of panelists): 2
[4]; [7]
  Soluble?: Somewhat
